Biological target: T1, p38 MAP Kinase a (Homo sapiens, UniProt Q16539)
T1 construct: purchased Upstate (Dundee UK)
Experiment: p38 MAP Kinase activity, radiometric filter-binding assay (Upstate)
Format: biochemical
Settings: IC50 range; read-out: Inhibitor activity versus p38 MAPKa
Experimental: The ability of compounds to inhibit p38 MAP a Kinase activity was measured in an assay performed by Upstate (Dundee UK). In a final reaction volume of 25 μL, p38 MAP Kinase a (5-10 mU) is incubated with 25 mM Tris pH 7.5, 0.002 mMEGTA, 0.33 mg/mL myelin basic protein, 10 mM MgAcetate and [g-33P-ATP] (specific activity approx. 500 cpm/pmol, concentration as required). The reaction is initiated by the addition of the MgATP mix. After incubation for 40 minutes at room temperature, the reaction is stopped by the addition of 5 μL of a 3% phosphoric acid solution. 10 μL of the reaction is then spotted onto a P30 filtermat and washed three times for 5 minutes in 75 mM phosphoric acid and once in methanol prior to drying and scintillation counting.
Duplicate data points are generated from a 1/3 log dilution series of a stock solution in DMSO. Nine dilutions steps are made from a top concentration of 10 μM, and a ‘no compound’ blank is included. The standard radiometric filter-binding assay is performed at an ATP concentration at, or close to, the Km. Data from scintillation counts are collected and subjected to free-fit analysis by Prism software. From the curve generated, the concentration giving 50% inhibition is determined and reported.

T1 sequence (Q16539 whole entry): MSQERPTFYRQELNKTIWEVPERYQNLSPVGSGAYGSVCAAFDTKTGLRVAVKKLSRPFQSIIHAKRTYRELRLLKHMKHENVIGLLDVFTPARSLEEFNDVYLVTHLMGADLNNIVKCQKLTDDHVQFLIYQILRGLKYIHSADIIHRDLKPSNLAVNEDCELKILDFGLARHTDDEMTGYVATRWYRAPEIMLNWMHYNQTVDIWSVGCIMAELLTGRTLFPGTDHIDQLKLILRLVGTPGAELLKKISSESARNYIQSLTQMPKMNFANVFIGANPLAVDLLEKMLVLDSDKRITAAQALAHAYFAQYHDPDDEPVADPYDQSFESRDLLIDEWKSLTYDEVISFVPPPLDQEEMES

Structure (SMILES)	IC50 [nM]
CC(C)(C)OC(=O)[C@@H](NCCc1ccc(-n2c(N)c(C(=O)c3ccc(F)cc3F)ccc2=O)cc1)c1ccccc1 [Example 2, tert-butyl (2S)-{[2-(4-{6-amino-5-[(2,4-difluorophenyl)carbonyl]-2-oxopyridin-1(2H)-yl}phenyl)ethyl]amino}(phenyl)ethanoate]	100 to 1000
Nc1c(C(=O)c2ccc(F)cc2F)ccc(=O)n1-c1ccc(CCN[C@H](C(=O)OC2CCCC2)C2CCCCC2)cc1 [Example 3, Cyclopentyl (2S)-{[2-(4-{6-amino-5-[(2,4-difluorophenyl)carbonyl]-2-oxopyridin-1(2H)-yl}phenyl)ethyl]amino}(cyclohexyl)ethanoate]	100 to 1000
CC(C)(C)OC(=O)[C@@H](NCCc1ccc(-n2c(N)c(C(=O)c3ccc(F)cc3F)ccc2=O)cc1)C1CCCCC1 [Example 4, tert-butyl (2S)-{[2-(4-{6-amino-5-[(2,4-difluorophenyl)carbonyl]-2-oxopyridin-1(2H)-yl}phenyl)ethyl]amino}(cyclohexyl)ethanoate]	> 1000
CC(C)C[C@@H](NCCc1ccc(-n2c(N)c(C(=O)c3ccc(F)cc3F)ccc2=O)cc1)C(=O)OC(C)(C)C [Example 10, tert-butyl N-[2-(4-{6-amino-5-[(2,4-difluorophenyl)carbonyl]-2-oxopyridin-1(2H)-yl}phenyl)ethyl]-D-leucinate]	100 to 1000
CC(C)C[C@H](NCCc1ccc(-n2c(N)c(C(=O)c3ccc(F)cc3F)ccc2=O)cc1)C(=O)O[C@H]1C[C@@H](C)CC[C@@H]1C(C)C [Example 14, (1S,2R,5S)-2-Isopropyl-5-methylcyclohexyl N-(2-{4-[6-amino-5-(2,4-difluorobenzoyl)-2-oxopyridin-1(2H)-yl]phenyl}ethyl)-L-leucinate]	> 1000
C[C@@H](OC(C)(C)C)[C@H](NCCc1ccc(-n2c(N)c(C(=O)c3ccc(F)cc3F)ccc2=O)cc1)C(=O)OC(C)(C)C [Example 16, tert-butyl N-[2-(4-{6-amino-5-[(2,4-difluorophenyl)carbonyl]-2-oxopyridin-1(2H)-yl}phenyl)ethyl]-O-tert-butyl-L-threoninate]	100 to 1000
CC[C@H](C)[C@H](NCCc1ccc(-n2c(N)c(C(=O)c3ccc(F)cc3F)ccc2=O)cc1)C(=O)OC(C)(C)C [Example 19, tert-butyl N-[2-(4-{6-amino-5-[(2,4-difluorophenyl)carbonyl]-2-oxopyridin-1(2H)-yl}phenyl)ethyl]-L-isoleucinate]	100 to 1000
C[C@H](NCCc1ccc(-n2c(N)c(C(=O)c3ccc(F)cc3F)ccc2=O)cc1)C(=O)OC(C)(C)C [Example 21, tert-butyl N-[2-(4-{6-amino-5-[(2,4-difluorophenyl)carbonyl]-2-oxopyridin-1(2H)-yl}phenyl)ethyl]-L-alaninate]	< 100
CC(C)(C)OC(=O)[C@H](Cc1ccccc1)NCCc1ccc(-n2c(N)c(C(=O)c3ccc(F)cc3F)ccc2=O)cc1 [Example 23, tert-butyl N-[2-(4-{6-amino-5-[(2,4-difluorophenyl)carbonyl]-2-oxopyridin-1(2H)-yl}phenyl)ethyl]-L-phenylalaninate]	100 to 1000
CC(C)(C)OC[C@H](NCCc1cc(F)c(-n2c(N)c(C(=O)c3ccc(F)cc3)ccc2=O)c(F)c1)C(=O)OC(C)(C)C [Example 32, tert-butyl N-(2-{4-[6-amino-5-(4-fluorobenzoyl)-2-oxopyridin-1(2H)-yl]-3,5-difluorophenyl}ethyl)-O-tert-butyl-L-serinate]	100 to 1000
CC(C)C[C@H](NCCc1ccc(-n2c(N)c(C(=O)c3ccc(F)cc3F)ccc2=O)s1)C(=O)OC(C)(C)C [Example 50, tbutyl N-(2-{5-[6-amino-5-(2,4-difluorobenzoyl)-2-oxopyridin-1(2H)-yl]-2-thienyl}ethyl)-L-leucinate]	100 to 1000
Nc1c(C(=O)c2ccc(F)cc2F)ccc(=O)n1-c1ccc(CCN[C@H](C(=O)O)c2ccccc2)cc1 [Example 51, (2S)-[(2-{4-[6-amino-5-(2,4-difluorobenzoyl)-2-oxopyridin-1(2H)yl]-phenyl}ethyl)amino](phenyl)acetic acid]	100 to 1000
Nc1c(C(=O)c2ccc(F)cc2F)ccc(=O)n1-c1ccc(CCN[C@H](C(=O)O)C2CCCCC2)cc1 [Example 52, (2S)-{[2-(4-{6-amino-5-[(2,4-difluorophenyl)carbonyl]-2-oxopyridin-1(2H)-yl}phenyl)ethyl]amino}(cyclohexyl)ethanoic acid]	100 to 1000
CC(C)[C@H](NCCc1ccc(-n2c(N)c(C(=O)c3ccc(F)cc3F)ccc2=O)cc1)C(=O)O [Example 53, N-[2-(4-{6-amino-5-[(2,4-difluorophenyl)carbonyl]-2-oxopyridin-1(2H)-yl}phenyl)ethyl]-L-valine]	< 100
CC(C)(C)[C@H](NCCc1ccc(-n2c(N)c(C(=O)c3ccc(F)cc3F)ccc2=O)cc1)C(=O)O [Example 54, N-[2-(4-{6-amino-5-[(2,4-difluorophenyl)carbonyl]-2-oxopyridin-1(2H)-yl}phenyl)ethyl]-3-methyl-L-valine]	100 to 1000
CC(C)C[C@@H](NCCc1ccc(-n2c(N)c(C(=O)c3ccc(F)cc3F)ccc2=O)cc1)C(=O)O [Example 55, N-[2-(4-{6-amino-5-[(2,4-difluorophenyl)carbonyl]-2-oxopyridin-1(2H)-yl}phenyl)ethyl]-D-leucine]	100 to 1000
CC(C)(C)OC[C@H](NCCc1ccc(-n2c(N)c(C(=O)c3ccc(F)cc3F)ccc2=O)cc1)C(=O)O [Example 56, N-[2-(4-{6-amino-5-[(2,4-difluorophenyl)carbonyl]-2-oxopyridin-1(2H)-yl}phenyl)ethyl]-O-tert-butyl-L-serine]	< 100
Nc1c(C(=O)c2ccc(F)cc2F)ccc(=O)n1-c1ccc(CCN[C@@H](CO)C(=O)O)cc1 [Example 57, N-[2-(4-{6-amino-5-[(2,4-difluorophenyl)carbonyl]-2-oxopyridin-1(2H)-yl}phenyl)ethyl]-L-serine]	< 100
C[C@@H](O)[C@H](NCCc1ccc(-n2c(N)c(C(=O)c3ccc(F)cc3F)ccc2=O)cc1)C(=O)O [Example 58, N-[2-(4-{6-amino-5-[(2,4-difluorophenyl)carbonyl]-2-oxopyridin-1(2H)-yl}phenyl)ethyl]-L-threonine]	< 100
C[C@H](NCCc1ccc(-n2c(N)c(C(=O)c3ccc(F)cc3F)ccc2=O)cc1)C(=O)O [Example 60, N-[2-(4-{6-amino-5-[(2,4-difluorophenyl)carbonyl]-2-oxopyridin-1(2H)-yl}phenyl)ethyl]-L-alanine]	< 100
Nc1c(C(=O)c2ccc(F)cc2F)ccc(=O)n1-c1ccc(CCN[C@@H](Cc2ccccc2)C(=O)O)cc1 [Example 61, N-[2-(4-{6-amino-5-[(2,4-difluorophenyl)carbonyl]-2-oxopyridin-1(2H)-yl}phenyl)ethyl]-L-phenylalanine]	< 100
Nc1c(C(=O)c2ccc(F)cc2)ccc(=O)n1-c1c(F)cc(CCN[C@H](C(=O)O)c2ccccc2)cc1F [Example 62, (2S)-[(2-{4-[6-amino-5-(4-fluorobenzoyl)-2-oxopyridin-1(2H)-yl]-3,5-difluorophenyl}ethyl)amino](phenyl)acetic acid]	< 100
CC(C)C[C@H](NCCc1cc(F)c(-n2c(N)c(C(=O)c3ccc(F)cc3)ccc2=O)c(F)c1)C(=O)O [Example 63, N-(2-{4-[6-amino-5-(4-fluorobenzoyl)-2-oxopyridin-1(2H)-yl]-3,5-difluorophenyl}ethyl)-L-leucine]	< 100

From patent publication US20100267774A1, “P38 MAP KINASE INHIBITORS” (CHROMA THERAPEUTICS LTD., priority 2007, published 2010)
